{"source": "paper PMC9698340", "about": "“Discovery and SAR Study of Quinoxaline–Arylfuran Derivatives as a New Class of Antitumor Agents” (Pharmaceutics, 2022)", "key": {"recombinant STAT3": {"target": "recombinant STAT3 (Homo sapiens, UniProt P40763)", "sequence (P40763 whole entry, species assumed)": "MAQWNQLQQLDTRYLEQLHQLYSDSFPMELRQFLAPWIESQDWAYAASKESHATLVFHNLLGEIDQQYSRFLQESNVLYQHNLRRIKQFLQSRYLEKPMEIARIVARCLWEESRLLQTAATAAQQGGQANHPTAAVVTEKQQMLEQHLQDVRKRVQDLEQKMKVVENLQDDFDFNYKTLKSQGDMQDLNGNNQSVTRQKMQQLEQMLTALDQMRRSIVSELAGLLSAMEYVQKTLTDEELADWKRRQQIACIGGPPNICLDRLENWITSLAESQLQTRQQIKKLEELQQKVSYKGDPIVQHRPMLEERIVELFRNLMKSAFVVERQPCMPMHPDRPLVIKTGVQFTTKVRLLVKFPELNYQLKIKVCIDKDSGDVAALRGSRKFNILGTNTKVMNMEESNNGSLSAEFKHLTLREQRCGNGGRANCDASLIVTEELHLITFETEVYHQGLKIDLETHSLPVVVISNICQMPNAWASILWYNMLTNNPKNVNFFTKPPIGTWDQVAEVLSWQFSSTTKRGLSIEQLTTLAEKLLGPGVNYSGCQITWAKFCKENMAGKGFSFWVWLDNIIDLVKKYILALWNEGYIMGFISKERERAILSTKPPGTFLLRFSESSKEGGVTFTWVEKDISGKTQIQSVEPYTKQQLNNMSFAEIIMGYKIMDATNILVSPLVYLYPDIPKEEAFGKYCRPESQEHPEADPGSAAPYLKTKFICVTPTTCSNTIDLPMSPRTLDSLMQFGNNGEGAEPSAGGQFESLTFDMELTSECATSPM", "experiment": "Biolayer interferometry (BLI) assay", "settings": "His-tagged STAT3 on SSA biosensors, QW12 5.2 to 333 μM, read-out: binding affinity (KD) to STAT3", "protocol": "BLI assays were performed using the BLItz system (Sartorius). Biosensors were first equilibrated 10 min in 1X kinetic buffer (Sartorius) consisting of PBS with 0.02% Tween20 and 0.1% BSA. Subsequently, depending on the assay, STAT3 was loaded onto the corresponding biosensor at a concentration of 1.9 µg/µL, as indicated in the Sartorius biosensor datasheets, for an appropriate time interval. The concentration range for the associating protein was chosen, when possible, based on the KD value available from the literature or experimentally determined for all scenarios wherein KD values were unknown. The data recorded were analyzed by means of the BLItz software and MATLAB to extrapolate the kinetic parameters. All association and dissociation curves were fitted by a single exponential function. Each acquisition was repeated twice to confirm reproducibility.\nTo confirm whether QW12 is a direct STAT3 inhibitor, a BLI (biolayer interferometry) analysis was performed. Briefly, recombinant STAT3 with a His tag was immobilized on SSA biosensors, and the dissociation constants were determined by measuring the binding to serial dilutions of QW12 at concentrations ranging from 5.2 to 333 μM (Figure 9A)."}, "HeLa cells [1]": {"test_system": "HeLa cells", "experiment": "Cell cycle analysis, PI flow cytometry", "format": "cell-based, human", "settings": "24 h", "protocol": "For cell cycle analysis, cells were collected after treatment, washed twice with cold PBS, fixed in 70% ethanol overnight, and stained with PI ([…], Sigma, Shanghai, China), plus 0.2 mg/mL of DNase-free RNase A (Qiagen) for 1 h at 4 °C."}, "[2]": {"test_system": "phosphorylated AKT (T308) in HeLa cells", "experiment": "Western blot of AKT (T308) phosphorylation", "format": "cell-based, human", "settings": "total AKT not affected, reversed by NAC"}, "HeLa cells [3]": {"test_system": "HeLa cells", "experiment": "CCK-8 antiproliferation assay, HeLa", "format": "cell-based", "settings": "Homo sapiens, 48 h", "protocol": "(§1) Human lung carcinoma cell lines A549, human cervical cancer cell lines HeLa, human prostate cancer cell lines PC3, human colorectal carcinoma cell lines HCT116, and human liver cells L02 were purchased from the Chinese Academy of Sciences Shanghai Cell Bank (Shanghai, China). HeLa, A549, PC3, HCT116, and L02 cells were cultured in DMEM Dulbecco’s Modified Eagle Medium (DMEM; Gibco Inc., Gaithersburg, MD, USA). All cultures were provided with 10% fetal bovine serum (FBS; YHSM, Beijing, China), 100 IU/mL penicillin, and 100 μg/mL streptomycin, and cells were incubated at 37 °C in an atmosphere of 5% CO2.\n(§2) Cell viability was determined using a CCK-8 kit (Apexbio, Houston, TX, USA). […] Subsequently, absorbance was assessed at 450 nm. Three duplicates were set in each group.\n(§3) All synthesized quinoxalines compounds were tested for in vitro cytotoxicity against four cancer cell lines (HeLa, PC3, A549, and HCT116). The inhibitory effects of these compounds were evaluated using the CCK-8 assay after treatment with 20 μM of each compound. […] The species of phenyl substituents have a significant effect on the activity. […] By comparison, hydrophobic substitution at the phenyl ring gave derivatives with relatively low potency (QW7–8). In addition, large substituents on the phenyl ring exerted an unfavorable influence on the potency of the compounds (QW8 and QW16)."}, "[4]": {"test_system": "STAT3 phosphorylation (Y705) in HeLa cells", "experiment": "Western blot of STAT3 Y705 phosphorylation", "format": "cell-based, human", "settings": "12 h", "protocol": "HeLa cells were seeded in a 6-well plate overnight and treated with QW12 for 24 h. The cells were then harvested and washed with cold PBS and lysed with RIPA buffer supplemented with a protease and phosphatase inhibitor cocktail. Protein concentration was measured using a BCA protein assay kit (Boster Biological Technology Co., Ltd., Wuhan, China). Proteins were separated by 10% SDS-PAGE gel and transferred onto polyvinylidene difluoride (PVDF) membranes (Millipore Co., Billerica, MA, USA). After blocking with 5% mild in PBST for 1 h at room temperature, membranes were incubated with specific primary antibodies against STAT3 (#ET1605-45), Bcl-2 (#ET1603-11), Bax (#ET1603-34), or GAPDH (#HA721136) overnight at 4 °C. The above antibodies were purchased from HUABIO, China. Phospho-STAT3 (Tyr 705) (#9145S) and anti-rabbit IgG, HRP-linked antibody (#7074S) were purchased from Cell Signaling Technology, Inc. America. […]\nThe activation of STAT3 is tightly regulated during various physiological processes, and the aberrant and persistent activation of STAT3 has been found in various types of cancer. […] Western blot analysis determined whether QW12 could also regulate the STAT3 signaling pathway in HeLa cells. HeLa cells were treated with QW12 for 12 h, and total cell lysates were prepared; Y705-phosphorylated STAT3 proteins were detected using a specific antibody."}, "HeLa cells [5]": {"test_system": "HeLa cells", "experiment": "Intracellular ROS, DCFH-DA flow cytometry", "format": "cell-based, human", "settings": "10 and 40 μM, 6 h", "protocol": "Intracellular reactive oxygen species (ROS) were measured by 2,7-dichlorofluorescein diacetate (DCFH-DA) staining. HeLa cells were treated with QW12 at 10 μM and 40 μM for 6 h. After indicated treatment, cells were harvested and washed with PBS. Cells were incubated with 10 μM DCFH-DA at 37 °C for 30 min. Cells were washed twice, resuspended with PBS, and subjected to flow cytometry."}, "A549 cells": {"test_system": "A549 cells", "experiment": "CCK-8 antiproliferation assay, A549", "format": "cell-based", "settings": "Homo sapiens, 48 h", "protocol": "as §1, §2, §3"}, "PC3 cells": {"test_system": "PC3 cells", "experiment": "CCK-8 antiproliferation assay, PC3", "format": "cell-based", "settings": "Homo sapiens, PC-3, 48 h", "protocol": "as §1, §2, §3"}, "HCT116 cells": {"test_system": "HCT116 cells", "experiment": "CCK-8 antiproliferation assay, HCT116", "format": "cell-based", "settings": "Homo sapiens, HCT-116, 48 h", "protocol": "as §1, §2, §3"}}, "data": [{"smiles": "COc1cc(-c2ccc(/C=N/NC(=O)c3ccc(O)cc3)o2)c(OC)cc1-c1ccc2nccnc2c1", "note": "[QW12, (E)-N’-((5-(2,5-dimethoxy-4-(quinoxalin-6-yl)phenyl)furan-2-yl)methylene)-4-hydroxybenzohydrazide]", "values": [{"measurement": "Kd", "setting": "recombinant STAT3", "value": 67.3, "unit": "µM"}, {"measurement": "HeLa cell population in the S phase", "setting": "HeLa cells [1]; 10 μM", "value": 23.19, "unit": "%"}, {"measurement": "HeLa cell population in the S phase", "setting": "HeLa cells [1]; 40 μM", "value": 51.88, "unit": "%"}, {"measurement": "percentage of cells in phases G0/G1 and G2/M", "setting": "HeLa cells [1]; 10 and 40 μM", "value": "decreased significantly"}, {"measurement": "effect on phosphorylated AKT levels (T308)", "setting": "[2]", "value": "significantly decreased"}, {"measurement": "IC50", "setting": "HeLa cells [3]; HeLa, CCK-8, read-out: IC50 ± SD, HeLa", "value": "10.58 ± 0.1", "unit": "µM"}, {"measurement": "inhibition at 20 µM", "setting": "HeLa cells [3]; 20 μM, CCK-8, mean ± SD, read-out: Inhibition Rate (%) at 20 μM, HeLa", "value": "76.35 ± 0.11", "unit": "%"}, {"measurement": "effect on STAT3 Tyr705 phosphorylation", "setting": "[4]", "value": "inhibited Tyr705 phosphorylation in a dose-dependent manner"}, {"measurement": "effect on total STAT3 level", "setting": "[4]", "value": "also decreased"}, {"measurement": "effect on ROS accumulation", "setting": "HeLa cells [5]", "value": "stimulates ROS accumulation in a dose-dependent manner"}, {"measurement": "inhibition at 20 µM", "setting": "A549 cells; 20 μM, CCK-8, mean ± SD, read-out: Inhibition Rate (%) at 20 μM, A549", "value": "50.8 ± 0.62", "unit": "%"}, {"measurement": "IC50", "setting": "A549 cells; CCK-8, read-out: IC50 ± SD, A549", "value": "20.6 ± 1.22", "unit": "µM"}, {"measurement": "inhibition at 20 µM", "setting": "PC3 cells; 20 μM, CCK-8, mean ± SD, read-out: Inhibition Rate (%) at 20 μM, PC3", "value": "52.55 ± 0.47", "unit": "%"}, {"measurement": "IC50", "setting": "PC3 cells; CCK-8, read-out: IC50 ± SD, PC3", "value": "12.7 ± 0.57", "unit": "µM"}, {"measurement": "inhibition at 20 µM", "setting": "HCT116 cells; 20 μM, CCK-8, mean ± SD, read-out: Inhibition Rate (%) at 20 μM, HCT116", "value": "65.43 ± 0.27", "unit": "%"}, {"measurement": "IC50", "setting": "HCT116 cells; CCK-8, read-out: IC50 ± SD, HCT116", "value": "12.2 ± 0.25", "unit": "µM"}]}]}
